In EP4707280A1, “1,4-CINEOLE DERIVATIVE AND INTERMEDIATE THEREOF, HERBICIDE CONTAINING SAID DERIVATIVE AS ACTIVE INGREDIENT, METHOD FOR USING HERBICIDE, AND METHOD FOR PREPARING AGROCHEMICAL COMPOSITION” (HOKKO CHEMICAL INDUSTRY CO., LTD., priority 2023, dated 2024):

What was measured:
Format in all cases: in vivo
Digitaria ciliaris [1] = experiment: Test Example 4: herbicidal effect test by stem and leaf treatment in upland field; conditions: Digitaria ciliaris; 120 g per 10 ares; sprayed seven days after sowing, upland soil; 14 days after application; read-out: weed inhibition rate
[2] = tested on: Echinochloa crus-galli var. formosensis; experiment: Test Example 5: herbicidal effect test by soil application in paddy rice (low dose); conditions: Echinochloa crus-galli, soil, 336 h; 7.5 g per 10 ares; applied immediately after sowing, flooded pots; 14 days after application; read-out: weed inhibition rate
Procedure: (§1) The present test was conducted in duplicate for each chemical concentration group, and the weed inhibition rate (%) was determined 14 days after chemical application using the following formula (Math. 1). [formula]
Wagner pots with an area of […] were filled with paddy soil, followed by addition of water and incorporation of chemical fertilizer (N:P:K = 16:16:16), after which puddling was performed. After that, seeds of Echinochloa crus-galli var. formosensis, broad-leaved weeds (Monochoria vaginalis), and Scirpus juncoides were sown at a depth of 0 cm to 1 cm, 30 seeds each. Immediately after sowing, the pots were flooded and a water depth of approximately 3 cm was maintained. Subsequent management was conducted in a glass greenhouse. Immediately thereafter, an emulsifiable concentrate prepared according to Formulation Example 5 using the compound shown below was diluted with water, and a specified amount of the diluted solution was applied by dropper. The amount of the active ingredient to be applied was equivalent to 7.5 g per 10 ares. […]

Echinochloa crus-galli [3] = experiment: Test Example 4: herbicidal effect test by stem and leaf treatment in upland field; conditions: Echinochloa crus-galli; 120 g per 10 ares; sprayed seven days after sowing, upland soil; 14 days after application; read-out: weed inhibition rate
[4] = tested on: Echinochloa crus-galli var. formosensis; experiment: Test Example 2: herbicidal effect test by application during growth period of paddy rice; conditions: Echinochloa crus-galli; 120 g per 10 ares; applied seven days after sowing, flooded pots; 14 days after application; read-out: weed inhibition rate
How it was run: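 Herbicidal effect was scored 14 days after treatment, in duplicate per concentration. Weeds sown 0–1 cm deep in puddled, fertilized paddy soil under about 3 cm of standing water received a water-diluted emulsifiable concentrate by dropper 7 days post-sowing, at 120 g a.i. per 10 ares.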

Digitaria ciliaris [5] = experiment: Test Example 7: herbicidal effect test by soil application in upland field (low dose); conditions: Digitaria ciliaris, 7.5 g per 10 ares, sprayed one day after sowing, 14 days after application, read-out: weed inhibition rate
Procedure: as §1
(§2) Pots with an area of 36 cm^2 were filled with upland soil (alluvial loam), twenty seeds each of weeds of Digitaria ciliaris, and Echinochloa crus-galli were uniformly mixed with the top 1 cm layer of soil and the surface was lightly pressed down. One day after sowing, an emulsifiable concentrate prepared according to Formulation Example 5 using the compound shown below was diluted with water, and the diluted solution was sprayed onto the soil surface at a rate of 100 liters per 10 ares. The amount of the active ingredient to be applied was equivalent to 7.5 g per 10 ares. Fourteen days after chemical application, the herbicidal effect was evaluated according to the same criteria as in Test Example 1.

Echinochloa crus-galli [6] = experiment: as above; conditions: Echinochloa crus-galli, 7.5 g per 10 ares, sprayed one day after sowing, 14 days after application, read-out: weed inhibition rate
Procedure: as §1, §2

Digitaria ciliaris [7] = experiment: Test Example 3: herbicidal effect test by soil application in upland field; conditions: Digitaria ciliaris, 120 g per 10 ares, sprayed one day after sowing, 14 days after application, read-out: weed inhibition rate
How it was run: (§3)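 Pre-emergence test: seeds mixed into top 1 cm of alluvial loam upland soil in pots; emulsifiable concentrate diluted in water sprayed on soil one day after sowing at 100 L/10 a, 120 g a.i./10 a. Weed inhibition rate (%) scored at 14 days, in duplicate.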

Echinochloa crus-galli [8] = experiment: as above; conditions: Echinochloa crus-galli, 120 g per 10 ares, sprayed one day after sowing, 14 days after application, read-out: weed inhibition rate
How it was run: as §3

Digitaria ciliaris [9] = experiment: Test Example 8: herbicidal effect test by stem and leaf treatment in upland field (low dose); conditions: Digitaria ciliaris; 7.5 g per 10 ares; sprayed seven days after sowing, upland soil; 14 days after application; read-out: weed inhibition rate
Procedure: as §1
as §2, with “Seven days” for “One day”

Echinochloa crus-galli [10] = experiment: as above; conditions: Echinochloa crus-galli; 7.5 g per 10 ares; sprayed seven days after sowing, upland soil; 14 days after application; read-out: weed inhibition rate
Procedure: as §1
as §2, with “Seven days” for “One day”

[11] = tested on: Echinochloa crus-galli var. formosensis; experiment: Test Example 1: herbicidal effect test by soil application in paddy rice; conditions: Echinochloa crus-galli, soil, 336 h; 120 g active ingredient per 10 ares; applied immediately after sowing, flooded pots; 14 days after application; read-out: weed inhibition rate
How it was run: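 Paddy soil in Wagner pots (1/10,000 acre), fertilized and puddled; 30 seeds per species sown at 0–1 cm, flooded to ~3 cm, greenhouse. Water-diluted emulsifiable concentrate dropped onto flooded pots right after sowing at 120 g active ingredient per 10 ares.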

[12] = tested on: Echinochloa crus-galli var. formosensis; experiment: Test Example 6: herbicidal effect test by application during growth period of paddy rice (low dose); conditions: Echinochloa crus-galli; 7.5 g per 10 ares; applied seven days after sowing, flooded pots; 14 days after application; read-out: weed inhibition rate
Procedure: as §1
Wagner pots with an area of […] were filled with paddy soil, followed by addition of water and incorporation of chemical fertilizer (N:P:K = 16:16:16), after which puddling was performed. After that, seeds of Echinochloa crus-galli var. formosensis, broad-leaved weeds (Monochoria vaginalis), and Scirpus juncoides were sown at a depth of 0 cm to 1 cm, 30 seeds each. Immediately after sowing, the pots were flooded and a water depth of approximately 3 cm was maintained. Subsequent management was conducted in a glass greenhouse. Seven days after sowing, an emulsifiable concentrate prepared according to Formulation Example 5 using the compound shown below was diluted with water, and a specified amount of the diluted solution was applied by dropper. The amount of the active ingredient to be applied was equivalent to 7.5 g per 10 ares. The test was conducted in duplicate for each chemical concentration group, and the herbicidal effect was evaluated 14 days after chemical application using the same criteria as in Test Example 1.

CC(C)C12CC(OCc3ccc(F)cc3)C(C)(CC1Br)O2 (stereo not shown) [1-1357, 5-bromo-2-[(4-fluorophenyl)methoxy]-1-methyl-4-isopropyl-7-oxabicyclo[2.2.1]heptane]
≥ 80%: inhibition at 1200 g/ha (Digitaria ciliaris [1]) | inhibition at 75 g/ha [2] | inhibition at 1200 g/ha (Echinochloa crus-galli [3]) | inhibition at 1200 g/ha [4] | inhibition at 75 g/ha (Digitaria ciliaris [5]) | inhibition at 75 g/ha (Echinochloa crus-galli [6]) | inhibition at 1200 g/ha (Digitaria ciliaris [7]) | inhibition at 1200 g/ha (Echinochloa crus-galli [8]) | inhibition at 75 g/ha (Digitaria ciliaris [9]) | inhibition at 75 g/ha (Echinochloa crus-galli [10]) | pest or weed control at 1200 g/ha [11] | inhibition at 75 g/ha [12]

COc1ccccc1COC1CC2(C(C)C)OC1(C)CC2Br (stereo not shown) [1-1349, 5-bromo-2-[(2-methoxyphenyl)methoxy]-1-methyl-4-isopropyl-7-oxabicyclo[2.2.1]heptane]
≥ 80%: inhibition at 1200 g/ha (Digitaria ciliaris [1]) | inhibition at 75 g/ha [2] | inhibition at 1200 g/ha (Echinochloa crus-galli [3]) | inhibition at 1200 g/ha [4] | inhibition at 75 g/ha (Digitaria ciliaris [5]) | inhibition at 75 g/ha (Echinochloa crus-galli [6]) | inhibition at 1200 g/ha (Digitaria ciliaris [7]) | inhibition at 1200 g/ha (Echinochloa crus-galli [8]) | inhibition at 75 g/ha (Digitaria ciliaris [9]) | inhibition at 75 g/ha (Echinochloa crus-galli [10]) | pest or weed control at 1200 g/ha [11] | inhibition at 75 g/ha [12]

CC(C)C12CC(OCc3ccccc3Cl)C(C)(CC1Br)O2 (stereo not shown) [1-1358, 5-bromo-2-[(2-chlorophenyl)methoxy]-1-methyl-4-isopropyl-7-oxabicyclo[2.2.1]heptane]
≥ 80%: inhibition at 1200 g/ha (Digitaria ciliaris [1]) | inhibition at 75 g/ha [2] | inhibition at 1200 g/ha (Echinochloa crus-galli [3]) | inhibition at 1200 g/ha [4] | inhibition at 75 g/ha (Digitaria ciliaris [5]) | inhibition at 75 g/ha (Echinochloa crus-galli [6]) | inhibition at 1200 g/ha (Digitaria ciliaris [7]) | inhibition at 1200 g/ha (Echinochloa crus-galli [8]) | inhibition at 75 g/ha (Digitaria ciliaris [9]) | inhibition at 75 g/ha (Echinochloa crus-galli [10]) | pest or weed control at 1200 g/ha [11] | inhibition at 75 g/ha [12]

CC(C)C12CC(OCc3c(F)cccc3Br)C(C)(CC1Br)O2 (stereo not shown) [1-1598, 5-bromo-2-[(2-bromo-6-fluorophenyl)methoxy]-1-methyl-4-isopropyl-7-oxabicyclo[2.2.1]heptane]
≥ 80%: inhibition at 75 g/ha [2] | inhibition at 1200 g/ha (Echinochloa crus-galli [3]) | inhibition at 1200 g/ha [4] | inhibition at 75 g/ha (Digitaria ciliaris [5]) | inhibition at 75 g/ha (Echinochloa crus-galli [6]) | inhibition at 1200 g/ha (Digitaria ciliaris [7]) | inhibition at 1200 g/ha (Echinochloa crus-galli [8]) | inhibition at 75 g/ha (Digitaria ciliaris [9]) | inhibition at 75 g/ha (Echinochloa crus-galli [10]) | pest or weed control at 1200 g/ha [11] | inhibition at 75 g/ha [12]

COc1ccccc1CO[C@@H]1C[C@]2(C(C)C)O[C@@]1(C)C[C@@H]2Br [1-18, (1S,2R,4R,5S)-5-bromo-2-[(2-methoxyphenyl)methoxy]-1-methyl-4-isopropyl-7-oxabicyclo[2.2.1]heptane]
≥ 80%: inhibition at 1200 g/ha (Digitaria ciliaris [1]) | inhibition at 75 g/ha [2] | inhibition at 1200 g/ha (Echinochloa crus-galli [3]) | inhibition at 1200 g/ha [4] | inhibition at 75 g/ha (Digitaria ciliaris [9]) | inhibition at 75 g/ha (Echinochloa crus-galli [10]) | pest or weed control at 1200 g/ha [11] | inhibition at 75 g/ha [12]

CC(C)C12CC(OCc3ccccc3Br)C(C)(CC1Br)O2 (stereo not shown) [1-1361, 5-bromo-2-[(2-bromophenyl)methoxy]-1-methyl-4-isopropyl-7-oxabicyclo[2.2.1]heptane]
≥ 80%: inhibition at 1200 g/ha (Digitaria ciliaris [1]) | inhibition at 75 g/ha [2] | inhibition at 1200 g/ha (Echinochloa crus-galli [3]) | inhibition at 1200 g/ha [4] | inhibition at 75 g/ha (Digitaria ciliaris [5]) | inhibition at 75 g/ha (Echinochloa crus-galli [6]) | inhibition at 1200 g/ha (Digitaria ciliaris [7]) | inhibition at 1200 g/ha (Echinochloa crus-galli [8]) | inhibition at 75 g/ha (Digitaria ciliaris [9]) | inhibition at 75 g/ha (Echinochloa crus-galli [10]) | pest or weed control at 1200 g/ha [11] | inhibition at 75 g/ha [12]

CCc1ccccc1CO[C@@H]1C[C@]2(C(C)C)O[C@@]1(C)C[C@@H]2Br [1-682, (1S,2R,4R,5S)-5-bromo-2-[(2-ethylphenyl)methoxy]-1-methyl-4-isopropyl-7-oxabicyclo[2.2.1]heptane]
≥ 80%: inhibition at 1200 g/ha (Digitaria ciliaris [1]) | inhibition at 75 g/ha [2] | inhibition at 1200 g/ha (Echinochloa crus-galli [3]) | inhibition at 1200 g/ha [4] | inhibition at 75 g/ha (Digitaria ciliaris [5]) | inhibition at 75 g/ha (Echinochloa crus-galli [6]) | inhibition at 1200 g/ha (Digitaria ciliaris [7]) | inhibition at 1200 g/ha (Echinochloa crus-galli [8]) | inhibition at 75 g/ha (Digitaria ciliaris [9]) | inhibition at 75 g/ha (Echinochloa crus-galli [10]) | pest or weed control at 1200 g/ha [11] | inhibition at 75 g/ha [12]

Cc1ccccc1COC1CC2(C(C)C)OC1(C)CC2Br (stereo not shown) [1-1343, 5-bromo-1-methyl-2-[(2-methylphenyl)methoxy]-4-isopropyl-7-oxabicyclo[2.2.1]heptane]
≥ 80%: inhibition at 1200 g/ha (Digitaria ciliaris [1]) | inhibition at 75 g/ha [2] | inhibition at 1200 g/ha (Echinochloa crus-galli [3]) | inhibition at 1200 g/ha [4] | inhibition at 75 g/ha (Digitaria ciliaris [5]) | inhibition at 75 g/ha (Echinochloa crus-galli [6]) | inhibition at 1200 g/ha (Digitaria ciliaris [7]) | inhibition at 1200 g/ha (Echinochloa crus-galli [8]) | inhibition at 75 g/ha (Digitaria ciliaris [9]) | inhibition at 75 g/ha (Echinochloa crus-galli [10]) | pest or weed control at 1200 g/ha [11] | inhibition at 75 g/ha [12]

CC(C)[C@]12C[C@@H](OCc3ccccn3)[C@](C)(C[C@@H]1Br)O2 [1-718, 2-[[(1S,2R,4R,5S)-5-bromo-1-methyl-4-isopropyl-7-oxabicyclo[2.2.1]heptan-2-yl]oxymethyl]pyridine]
≥ 80%: inhibition at 1200 g/ha (Digitaria ciliaris [1]) | inhibition at 75 g/ha [2] | inhibition at 1200 g/ha (Echinochloa crus-galli [3]) | inhibition at 1200 g/ha [4] | inhibition at 75 g/ha (Digitaria ciliaris [5]) | inhibition at 75 g/ha (Echinochloa crus-galli [6]) | inhibition at 1200 g/ha (Digitaria ciliaris [7]) | inhibition at 1200 g/ha (Echinochloa crus-galli [8]) | inhibition at 75 g/ha (Digitaria ciliaris [9]) | inhibition at 75 g/ha (Echinochloa crus-galli [10]) | pest or weed control at 1200 g/ha [11] | inhibition at 75 g/ha [12]

CC(C)C12CC(OCc3c(F)cccc3Cl)C(C)(CC1Br)O2 (stereo not shown) [1-1381, 5-bromo-2-[(2-chloro-6-fluorophenyl)methoxy]-1-methyl-4-isopropyl-7-oxabicyclo[2.2.1]heptane]
≥ 80%: inhibition at 1200 g/ha (Digitaria ciliaris [1]) | inhibition at 75 g/ha [2] | inhibition at 1200 g/ha (Echinochloa crus-galli [3]) | inhibition at 1200 g/ha [4] | inhibition at 75 g/ha (Digitaria ciliaris [5]) | inhibition at 75 g/ha (Echinochloa crus-galli [6]) | inhibition at 1200 g/ha (Digitaria ciliaris [7]) | inhibition at 1200 g/ha (Echinochloa crus-galli [8]) | inhibition at 75 g/ha (Digitaria ciliaris [9]) | inhibition at 75 g/ha (Echinochloa crus-galli [10]) | pest or weed control at 1200 g/ha [11] | inhibition at 75 g/ha [12]
